# Measured values taken from US7494984B2, “Substituted imidazo[1,2-a]pyrimidines as HIV viral DNA integrase inhibitors” (priority 2005, dated 2009).
# Assays:
# HIV-integrase = target: T1, HIV-integrase (Human immunodeficiency virus type 1 group M subtype B, UniProt P12497); experiment: HIV-Integrase Inhibition Activity (SPA strand transfer assay); format: biochemical; conditions: recombinant integrase, biotin labeled substrate DNA on SPA beads, P33 labeled target DNA; read-out: Activity (IC50 class, HIV-integrase inhibition)
# T1 construct: Recombinant integrase (0.26 ng) was incubated with the beads
# Procedure: HIV-Integrase Inhibition Activity. To evaluate in-vitro activity against HIV-integrase, 5 pmole of biotin labeled substrate DNA was bound to 100 μg of Streptavidin coated PVT SPA beads (Amersham Pharmacia Biotech). Recombinant integrase (0.26 ng) was incubated with the beads for 90 min at 37° C. Unbound enzyme was removed by washing the complex followed by addition of inhibitors and 0.1 fmol of P33 labeled target DNA. The reaction was stopped by adding EDTA to a final concentration of 10 mM. Samples were counted in TopCountNXT (Packard) and the CPM was used as a measure of integration. The reaction condition was as described in A. Engelman and R. Craigie, J. Virol. 69, 5908-5911 (1995). The sequences of substrate and target DNA were described in Nucleic Acid Research 22,1121-1122 (1994). Activity equal to A refers to a compound having IC50=0.005 to 0.010 μM while B and C denote compounds having IC50=0.010 to 0.030 μM and IC50>0.030 μM respectively.
structure (smiles),measurement,setting,value
"CN1CCn2c1nc(C(=O)NCc1ccc(F)cc1)c(O)c2=O [Example 1, N-(4Fluorobenzyl)-6-hydroxy-1-methyl-5-oxo-1,2,3,5-tetrahydroimidazo[1,2-a]pyrimidine-7-carboxamide]",melting point,,212 °C
same,IC50,HIV-integrase,0.01 to 0.03 µM
"CNC(=O)c1cc(F)ccc1CNC(=O)c1nc2n(c(=O)c1O)CCN2Cc1ccccc1 [Example 18, N-(4-Fluoro-2-(methylcarbamoyl)benzyl)-1-benzyl-6-hydroxy-5-oxo-1,2,3,5-tetrahydroimidazo[1,2-a]pyrimidine-7-carboxamide]",melting point,,206 °C (dec.)
same,IC50,HIV-integrase,0.01 to 0.03 µM
"O=C(NCc1ccc(F)cc1)c1nc2n(c(=O)c1O)CCN2Cc1ccccc1 [Example 16, N-(4-Fluorobenzyl)-1-benzyl-6-hydroxy-5-oxo-1,2,3,5-tetrahydroimidazo[1,2-a]pyrimidine-7-carboxamide]",melting point,,225 °C
same,IC50,HIV-integrase,> 0.03 µM
"Cc1cc(CNC(=O)c2nc3n(c(=O)c2O)CCN3C)ccc1F [Example 2, N-(4-Fluoro-3-methylbenzyl)-6-hydroxy-1-methyl-5-oxo-1,2,3,5-tetrahydroimidazo[1,2-a]pyrimidine-7-carboxamide]",melting point,,187 to 189 °C
same,IC50,HIV-integrase,0.01 to 0.03 µM
"CCCCN1CCn2c1nc(C(=O)NCc1ccc(F)cc1-n1cnc(C)n1)c(O)c2=O [Example 15, N-(4-Fluoro-2-(3-methyl-1H-1,2,4-triazol-1-yl)benzyl)-1-butyl-6-hydroxy-5-oxo-1,2,3,5-tetrahydroimidazo[1,2-a]pyrimidine-7-carboxamide]",melting point,,214 °C
same,IC50,HIV-integrase,0.005 to 0.01 µM
